US12533337B2, “Pharmaceutical drug containing heterocyclidene acetamide derivative” (SENJU PHARMACEUTICAL CO., LTD., priority 2019, dated 2026)
Entries after “also recorded” stand apart in the source; their conditions may differ.

Assays:
Assay type in all cases: in vivo
[1] = system: rat scopolamine-induced dry eye model; test: Observation of superficial punctate keratitis (SPK) in a rat scopolamine-induced dry eye model
Procedure: (§1) 1.0 w/v % compound (1) suspension eye drop was administered for an extended period using a rat scopolamine-induced dry eye model prepared by the same method as Test Example 2. The model was treated under a low humidity environment (20% RH or less) only when measuring the number of blinks.
(§2) 5 μL of 1.0 w/v % compound (1) suspension eye drop and vehicle eye drop was administered to the right eye 4 times a day by using a micropipette.
(§3) An effect of improving SPK (SPK score) was evaluated by the same method as Test Example 1 on day 8 of sample administration. The number of blinks of the right eye was measured for 5 minutes under a low humidity environment after 4 hours from the initial administration on day 7 of administration (2 weeks post-surgery) by the same method as Text Example 2.

[2] = system: Vi/Vc zone of the medulla oblongata; test: Measurement of c-Fos positive cell count in the Vi/Vc zone of the medulla oblongata, rat scopolamine-induced dry eye model; settings: 0.3 w/v % suspension eye drop
Procedure: 5 μL of eye drop was administered to the right eye using a micropipette, 4 times a day with an interval of 2 hours or longer. A vehicle eye drop was administered to the Sham group.
After a rat was allowed to bleed to death by perfusion of saline, Zamboni's Fixative was perfused to extract the medulla oblongata. After sectioning the extracted medulla oblongata, the medulla oblongata was stained by immunohistochemical staining by using an anti-c-Fos antibody (product name: Rabbit Anti-Human c-Fos Polyclonal Antibody, sc-52, Santa Cruz Biotechnology, Inc.).

[3] = system: rat scopolamine-induced dry eye model; test: Number of blinks under a low humidity environment in a rat scopolamine-induced dry eye model; settings: for number of blinks within 5 minutes / number of blinks within 5 minutes vs vehicle at 0.5 hours: single administration; for number of blinks within 5 minutes: 0.5 hours after
Procedure: Compound (1) was used as a tested substance. In the same manner as Test Example 1, compound (1) was suspended in a buffer to prepare suspension eye drops with a concentration of compound (1) of 0.1 w/v %, 0.3 w/v %, and 1.0 w/v %. A compound (1)-free vehicle eye drop consisting of only a vehicle was also prepared as a control group.
A rat scopolamine-induced dry eye model was prepared by the same method as Test Example 1.
After about 2.5 hours from implanting an osmotic pump, dry air supplied from an air compressor was sent into an experiment chamber (SJ-1500N, Natsume Seisakusho) to create a low humidity environment (20% RH or lower).
5 μL of a vehicle eye drop or 0.1 w/v %, 0.3 w/v %, or 1.0 w/v % compound (1) suspension eye drop was administered once to the right eye using a micropipette, 0.5 hours before measuring the number of blinks.
After 8 days or more from starting raising the rats in a low humidity environment, the rats were taken out from a breeding cage. The animals were placed in a cage comprised of chain link fencing on all sides (behavior measurement environment cage) to facilitate measurement of the number of blinks. After acclimation for 0.5 hours under a normal environment, the behavior measurement environment cage was transferred to an experiment chamber, and the number of blinks of the right eye of rats was measured for 5 minutes under a low humidity environment. A test was conducted in four separate phases using the same animals after a drug withdrawal period of 2 days or more (crossover test).
By using the same evaluation method as Text Example 2, the sustainability of an effect of improving a subjective symptom was examined.
as §1, §2, §3

O=C(/C=C1\CCOc2cc(C(F)(F)F)ccc21)Nc1cccc2c1C[C@H](O)CC2 [compound (1), (E)-2-(7-trifluoromethylchroman-4-ylidene)-N-((7R)-7-hydroxy-5,6,7,8-tetrahydronaphthalen-1-yl)acetamide]
SPK score compared to a vehicle eye drop ([1]; 0.3 w/v % suspension eye drop, after 7 days from administration (15 days post-surgery)): significantly reduced
SPK score effect compared to a vehicle eye drop ([1]; 0.3 w/v % suspension eye drop, after 14 days from administration (22 days post-surgery)): sustained
SPK score compared to a vehicle eye drop ([1]; 1.0 w/v % suspension eye drop, 4 times a day, 8 days of repeated administration (Example 4)): significantly reduced
c-Fos positive cell count in the Vi/Vc zone of the medulla oblongata compared to a vehicle eye drop ([2]; 14 days of administration): reduced
c-Fos positive cell count ([2]; SCOP model, 5 μL right eye 4 times a day for 14 days, Vi/Vc zone, 22 days post-surgery): 8.8 ± 3.8 cells/section
number of blinks within 5 minutes ([3]; 0.1 w/v % suspension eye drop, low humidity): reduced
number of blinks within 5 minutes ([3]; 0.3 w/v % suspension eye drop, low humidity): significant effect
number of blinks within 5 minutes compared to a vehicle eye drop ([3]; 1.0 w/v % suspension eye drop, repeated administration 4 times a day, 4 hours after initial administration on day 7, low humidity (Example 4)): reduced
number of blinks within 5 minutes ([3]; 1.0 w/v % suspension eye drop, low humidity (Test Example 2)): significant effect
number of blinks within 5 minutes vs vehicle at 0.5 hours ([3]; 1.0 w/v % suspension eye drop, after 0.5 hours (Example 3)): significantly reduced; also recorded: reduced significantly
number of blinks within 5 minutes vs vehicle at 0.5 hours ([3]; 1.0 w/v % suspension eye drop, after 4 hours (Example 3)): significantly reduced; also recorded: reduced significantly
number of blinks within 5 minutes vs vehicle at 0.5 hours ([3]; 1.0 w/v % suspension eye drop, after 8 hours (Example 3)): reduced
